Ends that are not written are not given here.
Columns and labels:
[1] = system: Y79 retinoblastoma cells; experiment: Cytotoxicity (MTT) assay, Y79; format: cell-based; conditions: 24 and 48 h, 10-100 µM
Experimental: (§1) Y79 retinoblastoma and MIOM1 cells were seeded at 5 × 10^3 cells/well in 96-well plates and incubated at 37 °C overnight. The cells were then treated with varying concentrations (10, 30, 60, and 100 µM) of Pep-A and Pep-B in a fresh medium and incubated for specific time periods (24 and 48 h). At the end of the incubation, 10 µl of MTT [3-(4, 5-dimethylthiazol-2-yl)-2, 5-diphenyltetrazolium bromide; 5 mg/ml] was added to the cells with fresh medium (100 µl) and incubated at 37 °C until formazan crystals were formed. The formazan crystals were dissolved in 100 µl of DMSO, and the reading was taken at 570 nm (BioTek, ELISA, USA). Cell viability was calculated as Test OD/Control OD × 100.
Cytotoxic effects of GNPs and Pep-A were evaluated by MTT assay as per the protocol described in “Cytotoxicity assay” section. Antioxidant effects of GNPs-Pep-A, bioconjugate were evaluated by measuring the cellular ROS and SOD enzyme activity by similar methods as described in “Measurement of intracellular ROS levels on peptide treatment using 2′, 7′ dichlorodihydrofluorescein (DCF) assay” and “SOD activity measurement” sections, respectively. […] Total RNA was isolated using Trizol, and concentration of RNA was quantified using a Nanodrop (Biospec-Nano,Shimadzu, Biotech, Japan). […] Quantification of target gene expression was performed in triplicate in a 20-µl reaction mixture containing 0.1 µg of cDNA, specific primers (Table 1), and SYBR green reagent in 96-well plates on a real-time PCR system (Applied Biosystems, Singapore). GAPDH and β actin were used as internal controls, and the detection was carried out by measuring the binding of fluorescence dye SYBR green to double-stranded DNA. After cycling, relative quantitation of the tested gene cDNA against the internal control was performed using the ΔCT method. The relative amount of gene-specific mRNA to housekeeping gene was calculated using 2^−ΔΔCt, where Ct, the number of cycles at which amplification reaches a threshold, is determined using SDS software version 1.3.

[2] = system: MIOM1 (Muller-glial) non-neoplastic cells; experiment: Cytotoxicity (MTT) assay, MIOM1; format: cell-based, human; conditions: 24 and 48 h, 10-100 µM
Experimental: as §1

[3] = system: Y79 cells; experiment: Peptide uptake by flow cytometry (FACS); format: cell-based; conditions: 4 h; for FITC positive population in M2: Y79 RB cells, flow cytometry; for M1 population: Y79 cells, histogram statistic in text, in % (unit assumed)
Experimental: (§2) The Y79 cells were seeded on the lysine (0.01 mg/ml)-coated glass slide. The cells were cultured overnight and treated with different concentrations (50 or 100 µM) of FITC-tagged Pep-A for 4 h, for studying the localization and internalization of the peptide by fluorescence microscopy. The FITC-labeled peptide A molecules (molecular mass 771.2) were custom synthesized (CPS 1468-1, custom peptide synthesis, USV limited India) with ~95 % purity obtained by HPLC method. The GNPs and GNPs-Pep-A conjugates were doped with the R6G dye as described by Kalmodia et al., for the internalization study (Kalmodia et al. [2013]). The internalization of the peptide, R6G-doped GNPs and GNPs-Pep-A after 4 h was qualitatively detected by Zeiss LSM, 710 laser microscope supplied by Axio vision (Germany). […] Y79 cells were seeded at 2 × 10^5 cells/well in six-well plates and treated with 50 and 100 µM concentrations of Pep-A for 4 h. The cells were then spun at 1500 rpm for 5 min, washed with PBS buffer, and then resuspended in FACS buffer. The cells were then analyzed for uptake of the peptide using FACS Calibur (BD Biosciences, CA, USA) by means of CELL QUEST PRO software. The fluorescence of FITC-stained cells was excited with an argon laser at 488 nm, and the emissions were detected at 530 nm. The overlay graph and scattered plot were used to confirm the FITC positive cell population.

[4] = system: Y79 cells; experiment: Internalization by fluorescence microscopy; format: cell-based; conditions: Y79 RB cells; FITC-labeled Pep-A, R6G dye-doped GNPs and GNPs-Pep-A; 4 h (method), 3 h (Fig. 5 legend)
Experimental: as §2

Row | Substance | cytotoxicity to Y79 cells (in words) [1] | cytotoxicity to non-cancerous MIO-M1 cells (in words) [2] | uptake into the Y79 cells (in words) ([3]; FACS, 50 and 100 µM) | FITC positive population in M2 ([3]; 50 µM FITC-tagged Pep-A, Fig. 4b) | FITC positive population in M2 ([3]; 100 µM FITC-tagged Pep-A, Fig. 4c) | M1 population ([3]; 50 µM of Pep-A, control 99.99) | M1 population ([3]; second mention printed as 50 µM of Pep-A) | internalization by fluorescence microscopy (in words) [4] | cytotoxicity to Y79 cells (in words) ([1]; listed as pep-A) | cytotoxicity to non-cancerous MIO-M1 cells (in words) ([2]; listed as pep-A)
1 | TRNYYVRAVL [Pep-B, Thr-Arg-Asn-Tyr-Tyr-Val-Arg-Ala-Val-Leu] | no cytotoxicity | no cytotoxicity |  |  |  |  |  |  |  | 
2 | PHCKRM [Pep-A, Pro-His-Cys-Lys-Arg-Met] | no cytotoxicity | no cytotoxicity | concentration-dependent uptake | 99% | 99% | 99.97 | 99.95 | internalization | no toxicity | no toxicity

Reference: publication PMC4747989, “Bio-conjugation of antioxidant peptide on surface-modified gold nanoparticles: a novel approach to enhance the radical scavenging property in cancer cell” (Cancer Nanotechnology, 2016)
